One test concerns the target BTK (Homo sapiens (Human), UniProt Q06187). Briefly: BTK degradation in OCI-LY10 cells (Total-BTK HTRF kit). It is filed as cell-based. Particulars: OCI-LY10 cells, 24 (or 6) h incubation; DC50 = concentration when degradation rate reaches 50%; read-out: OCI-LY10 cell BTK degradation DC50. As to the method: The detection was carried out using the Total-BTK Kits (cisbio, 63ADK064PEH), and 4× Supplemented Lysis buffer was prepared using the Blocking reagent stock solution (100×) and Lysis buffer stock solution (4×). Premixed antibody solutions were prepared using the Detection buffer, Total-BTK d2 antibody, and Total-BTK Eu Cryptate antibody.
OCI-LY10 cells in a good growth state were collected and added to a centrifuge tube, adjusted to a cell density of 4.17×10^6 cells/mL, and seeded in a 384-well plate (12 μL/well). The cells were incubated overnight in a cell incubator. Compounds were added using a nanoliter pipettor such that the final concentrations of the compounds were 100 nM-0.098 nM; the addition was performed in duplicate, and meanwhile, a control was set. After another 24 (or 6) h of incubation in the cell incubator, the 4× Supplemented Lysis buffer was added at 4 μL/well to lyse the cells. After the cells were shaken for 40 min at room temperature, the Premixed antibody solutions were added at 4 μL/well, and the cells were left to stand overnight at room temperature. Fluorescence values of the cells were detected at 665 nm/620 nm using an Envision microplate reader, the four-parameter analysis was performed, the dose-response curves were fit, and DC50 (the concentration of the drug when the degradation rate reaches 50%) and Dmax (the maximum degradation rate) were calculated.
Sequence of BTK (Q06187 whole entry): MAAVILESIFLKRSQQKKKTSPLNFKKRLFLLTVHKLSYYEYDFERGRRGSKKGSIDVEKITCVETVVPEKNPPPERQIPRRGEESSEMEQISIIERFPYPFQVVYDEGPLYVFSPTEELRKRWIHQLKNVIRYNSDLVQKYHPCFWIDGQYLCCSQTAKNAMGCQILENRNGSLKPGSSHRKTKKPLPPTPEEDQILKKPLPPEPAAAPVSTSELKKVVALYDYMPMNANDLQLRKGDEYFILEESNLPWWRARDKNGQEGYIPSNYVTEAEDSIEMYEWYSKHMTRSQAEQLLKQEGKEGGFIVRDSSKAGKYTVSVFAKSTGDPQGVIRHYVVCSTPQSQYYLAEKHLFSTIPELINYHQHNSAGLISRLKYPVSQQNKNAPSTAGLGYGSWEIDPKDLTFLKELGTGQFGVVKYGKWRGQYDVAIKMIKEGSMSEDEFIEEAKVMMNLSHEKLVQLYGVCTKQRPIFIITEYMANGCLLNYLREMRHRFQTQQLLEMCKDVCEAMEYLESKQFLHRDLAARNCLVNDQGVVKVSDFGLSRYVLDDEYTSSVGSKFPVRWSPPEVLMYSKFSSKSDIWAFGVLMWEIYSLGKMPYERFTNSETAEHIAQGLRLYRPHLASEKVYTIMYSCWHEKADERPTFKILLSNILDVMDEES
Usually DC50 stands for the midpoint of the concentration-degradation curve. As to `CN1CCN([C@@H]2CCCN(c3cnc(C(N)=O)c(Nc4ccc(C5CCN([C@H]6CC[C@H](n7ccc8c9c(C%10CCC(=O)NC%10=O)noc9ccc87)CC6)CC5)cc4)n3)C2)C1=O` (some centres unmarked) [Compound 102-2], the DC50 is under 0.098 nM.
The same measure, in the same setting: as for `CN1CCN([C@@H]2CCCN(c3cnc(C(N)=O)c(Nc4ccc(C5CCC6(CC5)CN(C5CN(c7ccc8c(C9CCC(=O)NC9=O)noc8c7)C5)C6)cc4)n3)C2)C1=O` (some centres unmarked) [Compound 12], the figure is 0.098 nM.

The test is the same for the next values; noted with them: OCI-LY10 cells, 24 (or 6) h incubation; maximum degradation rate.
On to `CN1CCN([C@@H]2CCCN(c3cnc(C(N)=O)c(Nc4ccc5c(c4)CN(CC4Cc6ccc7c(C8CCC(=O)NC8=O)noc7c6C4)C5)n3)C2)C1=O` (some centres unmarked) [Compound 45], for which the “BTK degradation in OCI-LY10 cells Dmax” value was over 90%.
On to `NC(=O)c1ncc(N2CCCCC2)nc1Nc1ccc(C2CCN(C[C@H]3C[C@@H](n4ccc5c6c(C7CCC(=O)NC7=O)noc6ccc54)C3)CC2)cc1` (some centres unmarked) [Compound 99-1], for which the “BTK degradation in OCI-LY10 cells Dmax” value is recorded as over 90%.
The same measure, in the same setting: with `CN1CCN([C@@H]2CCCN(c3cnc(C(N)=O)c(Nc4ccc(C5CCN([C@H]6CC[C@H](n7ccc8c9c(C%10CCC(=O)NC%10=O)noc9ccc87)CC6)CC5)cc4)n3)C2)C1=O` (some centres unmarked) [Compound 102-2] the figure was 97.11%; with `NC(=O)c1ncc(N2CCCCC2)nc1Nc1ccc(C2CCN([C@H]3CC[C@H](n4ccc5c6c(C7CCC(=O)NC7=O)noc6ccc54)CC3)CC2)cc1` (some centres unmarked) [Compound 103-2], over 90%.
Turning to `CN1CCN([C@@H]2CCCN(c3cnc(C(N)=O)c(Nc4ccc5c(c4)CCC4(CCN(CC6Cc7ccc8c(C9CCC(=O)NC9=O)noc8c7C6)CC4)O5)n3)C2)C1=O` (some centres unmarked) [Compound 78], the “BTK degradation in OCI-LY10 cells Dmax” value was over 90%.
The same measure, in the same setting: with `CN1CCN([C@@H]2CCCN(c3cnc(C(N)=O)c(Nc4ccc(C5CCN(C[C@H]6C[C@H](n7ccc8c9c(C%10CCC(=O)NC%10=O)noc9ccc87)C6)CC5)cc4)n3)C2)C1=O` (some centres unmarked) [Compound 98-1] the figure was over 90%; with `CN1CCN([C@@H]2CCCN(c3cnc(C(N)=O)c(Nc4ccc(C5CCC6(CC5)CN(C5CN(c7ccc8c(C9CCC(=O)NC9=O)noc8c7)C5)C6)cc4)n3)C2)C1=O` (some centres unmarked) [Compound 12], 99%; with `CN1CCN([C@@H]2CCCN(c3cnc(C(N)=O)c(Nc4ccc(C5CCN([C@H]6CC[C@@H](n7ccc8c9c(C%10CCC(=O)NC%10=O)noc9ccc87)CC6)CC5)cc4)n3)C2)C1=O` (some centres unmarked) [Compound 102-1], over 90%.

Staying with this test, now noted: OCI-Ly10, OCI-LY10 cells, 24 (or 6) h incubation; maximum degradation rate.
Usually Dmax stands for the largest share of the target that was removed. Consider `CN1CCN([C@@H]2CCCN(c3cnc(C(N)=O)c(Nc4ccc5c(c4)OC[C@H]4CN(CC6Cc7ccc8c(C9CCC(=O)NC9=O)noc8c7C6)CCN54)n3)C2)C1=O` (some centres unmarked) [Compound 86], for which the Dmax was over 90%.
The same measure, in the same setting: with `CN1CCN([C@@H]2CCCN(c3cnc(C(N)=O)c(Nc4ccc(C5CCC6(CC5)CC(N5CCc7ccc8c(C9CCC(=O)NC9=O)noc8c7C5)C6)cc4)n3)C2)C1=O` (some centres unmarked) [Compound 57] the figure was over 90%; with `NC(=O)c1ncc(N2CCCCC2)nc1Nc1ccc(N2CCC(N3Cc4ccc5c(C6CCC(=O)NC6=O)noc5c4C3)CC2)cc1` (centres unmarked) [Compound 31], over 90%.

The next test has as its system TMD8-BTK(C481S) cells. Briefly: Inhibitory activity on TMD8-BTK(C481S) cell proliferation (CCK-8). It is filed as cell-based. Particulars: 72 h, 72 h incubation. As to the method: TMD8-BTK(C481S) cells in a good growth state were collected and added to a centrifuge tube, adjusted to a cell density of 8×10^4 cells/mL, and seeded in a 96-well plate (100 μL/well). The cells were incubated overnight in a cell incubator. Compounds were added using a nanoliter pipettor such that the final concentrations of the compounds were 5000 nM-0.31 nM; the addition was performed in duplicate, and meanwhile, a control was set. After another 72 h of incubation in the cell incubator, 10 μL of CCK-8 (CK04, PP799) was added. After 4 h of incubation in the cell incubator, absorbance values were detected at 450 nm using an Envision microplate reader, the four-parameter analysis was performed, the dose-response curves were fit, and IC50 was calculated.
Usually IC50 stands for the concentration at which inhibition is half-maximal. A higher IC50 goes with weaker potency. In turn, `NC(=O)c1ncc(N2CCCCC2)nc1Nc1ccc(N2CCC(N3CCc4c(ccc5c(C6CCC(=O)NC6=O)noc45)C3)CC2)cc1` (centres unmarked) [Compound 61] gave an IC50 of 13 nM.
`CN1CCN([C@@H]2CCCN(c3cnc(C(N)=O)c(Nc4ccc(C5CCN(C[C@H]6CCN(c7ccc8onc(C9CCC(=O)NC9=O)c8c7)C6)CC5)cc4)n3)C2)C1=O` (some centres unmarked) [Compound 4]: the IC50 was 27 nM.
On the same count and under the same terms, with `NC(=O)c1ncc(N2CCCCC2)nc1Nc1ccc(C2CCN(CC3Cc4ccc5c(C6CCC(=O)NC6=O)noc5c4C3)CC2)cc1` (centres unmarked) [Compound 75] the figure was 9.8 nM.
Take `NC(=O)c1ncc(N2CCCCC2)nc1Nc1ccc(N2CCC(N3CCc4ccc5c(C6CCC(=O)NC6=O)noc5c4C3)CC2)cc1` (centres unmarked) [Compound 60]: the IC50 came out at 9.4 nM.

The same test, now with this note: 72 h incubation.
`NC(=O)c1ncc(N2CCCCC2)nc1Nc1ccc(C2CCC(CN3CCc4ccc5c(C6CCC(=O)NC6=O)noc5c4CC3)CC2)cc1` (centres unmarked) [Compound 74] showed an IC50 of 23 nM.
As to `NC(=O)c1ncc(N2CCCCC2)nc1Nc1ccc(C2CCN(C3Cc4ccc5c(C6CCC(=O)NC6=O)noc5c4C3)CC2)cc1` (centres unmarked) [Compound 70], the IC50 came out at 15 nM.
Still for that read-out and setting: as for `NC(=O)c1ncc(N2CCCCC2)nc1Nc1ccc(C2CCC(N3CCc4ccc5c(C6CCC(=O)NC6=O)noc5c4CC3)CC2)cc1` (centres unmarked) [Compound 67], the figure is 32 nM.
